# Columns and labels:
# Pax7 = test: Examination 3: Pax7 expression in skeletal muscle cells in differentiation medium; format: cell-based, broiler chicks (Ross 308); conditions: 100 μM GSSG in differentiation medium; 12 hours after start of culture; FIG. 2D, n=6
# Source text: FIGS. 2A to 2D illustrate graphs showing the expression levels of genes related to skeletal muscle cell differentiation upon the addition of GSSG during the skeletal muscle cell differentiation period in Examination 3 (n=6). […] A relative value of the expression level of each factor is expressed as an average±standard deviation of values obtained by dividing the expression levels of each factor by the expression level of RPS9. Each different symbol denotes a significant difference in the […] multiple comparison test (P<0.05). Oxidized glutathione (GSSG) was added to a differentiation-promoting culture medium system of skeletal muscle cells collected from newly hatched broiler chicks (Ross 308, Ross Breeders Ltd.) (under culture conditions simulating the state of skeletal muscle cells of neonatal chicks), phosphorylation of signal factors was analyzed by Western blot, and the differentiation inhibition mechanism was investigated. Expression levels of MyoD, myostatin, IGF-I, and Pax7 as genes involved in myogenesis were determined. Pax7 is a muscle satellite cell marker. […] The expression level of Pax7 was determined by the method described in Examination 1 except that the primer set used herein was a primer set listed in the table below. […] The cells were recovered 0, 12, and 24 hours later, and the expression levels of genes involved in myogenesis were determined. […]
# [1] = Examination 4: body weight of chicks raised until 35 days old after feeding GSSG or GSH for 3 days; format: in vivo, broiler chicks; conditions: 0.01% by mass additive in feed for 3 days; n = 6, average ± standard deviation
# Procedure: Newly hatched broiler chicks (Ross Breeders Ltd.) were tested. A control group (=additive-free group), a GSSG addition group (0.01% by mass), and a GSH addition group (0.01% by mass) each consisting of 5 males and 5 females were set and fed with a feed composition for 3 days. […] At this timing, 2 males and 2 females in each group were slaughtered to collect blood and skeletal muscles. The gene expression levels of the MyoD family (myogenin, myostatin, and Pax7) were observed. […] Statistics were analyzed using a mixed model in consideration of a gender difference and an interaction between males and females. An ammonium salt was used as oxidized glutathione (GSSG). The GSSG contained 95.6% by mass of oxidized glutathione, and the content of reduced glutathione mixed therein was 0.1% by mass or less. […] A feed composition, for which the amount of oxidized glutathione (GSSG) added was set to 0.01% by mass, is described in Examination 1. A feed composition, for which the amount of reduced glutathione (GSH) added was set to 0.01% by mass, was prepared by adding 0.01% by mass of GSH, instead of 0.01% by mass of GSSG, to the GSSG-containing feed composition described in detail in Examination 1.
# myostatin = test: Examination 1: myostatin gene expression in superficial pectoral muscle (real-time PCR, relative to RPS9); format: in vivo, broiler chicks of the Chunky breed (Ross 308); conditions: 3 days old, GSSG addition group (0.01% or 0.1% feed), FIG. 1C, n=6
# Source text: FIGS. 1A to 1D illustrate graphs showing the expression of genes related to skeletal muscle cell differentiation in superficial pectoral muscles upon administration of each feed composition in Examination 1 (n=6). […] A relative value of the expression level of each factor is expressed as an average±standard deviation of values obtained by dividing the expression levels of each factor by the expression level of RPS9. Each different symbol denotes a significant difference in the […] multiple comparison test (P<0.05). Newly hatched broiler chicks of the Chunky breed (Ross 308, Ross Breeders Ltd.) were tested. […] Real-time PCR was performed by adding cDNA, a primer set, and other necessary reagents to wells of a 96-well PCR plate, preheating the plate using a thermal cycler at 95° C. for 3 minutes, followed by 35 cycles of steps of denaturation, annealing, and elongation in a repetitive manner, and measurement of […] after the elongation step for each cycle. The expression level of each gene was designated as a relative value obtained by dividing the determined amount of an amplification product of IGF-I, myostatin, MyoD, or myogenin by the amount of an amplification product of RPS9. […] The amount of GSSG used herein was determined in terms of the amount of free oxidized glutathione. […]
substance,measurement,setting,value
oxidized glutathione [GSSG],expression of Pax7 vs control group,Pax7,significantly increased
same,"Weight, 14 days old",[1],524.5 ± 37.0 g
same,"Weight, 35 days old",[1],2164 ± 178 g
same,myostatin expression level vs control group,myostatin,significant decreases

# Source: patent US20180271930A1, “METHOD FOR RAISING POULTRY” (priority 2015, published 2018)
